{
  "source": "patent US20240252508A1",
  "about": "“Novel glucose uptake inhibitors for use in the treatment of cancer” (NOVELYEAST BV, priority 2021, published 2024)",
  "key": {"[1]": {"test_system": "tps1Δ cells", "experiment": "Growth rescue of tps1Δ strain on glucose (growth curves, 2% galactose medium)", "format": "cell-based, S. cerevisiae", "procedure,_shortened": "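tps1Δ yeast pregrown in Complete Synthetic medium with 2% galactose, washed, resuspended to OD 0.1; compounds added 10 min before glucose. Growth followed as OD595 every 30 min at 30 °C in at least three technical replicates.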"}, "[2]": {"target": "T1, yeast Hxt7 carrier (Saccharomyces cerevisiae, UniProt P39004)", "T1 construct": "HA (C); expressed in transfected cells; host or cells: S. cerevisiae RE700A (hxt0 gal2Δ) in A5; EBY.VW4000 (hxt0 erg4Δ) in A7; plasmid 'pHXT7'", "experiment": "Glucose uptake by Hxt7 expressed in hxt^0 gal2Δ (RE700A) yeast", "format": "cell-based, S. cerevisiae", "from_the_text": "(§1) To assess whether WBC-A could inhibit glucose transport activity of the GLUT carriers, we expressed human GLUT1^V69M and GLUT4^V85M in a hxt^0 gal2Δ (RE700A) and hxt^0 erg4Δ (EBY.VW4000) strain, respectively. These strains are both deficient in glucose uptake due to absence of all active glucose transporters. For functional GLUT expression in yeast, specific mutations had to be introduced in both sequences, whereas for GLUT4, an additional ERG4 gene deletion was required^64,65,66.\n(§2) Zero-trans uptake of radioactively labeled [U-^14C]glucose, [U-^14C]fructose or [U-^14C]galactose by S. cerevisiae cells was determined in accordance with previous studies^44,66. Cells were grown on different carbon sources depending on the experiment. For measuring glucose uptake activity in the tps1Δ and tps1Δ hxtA strains (FIG. 1b,c), cells were grown on YP medium containing 3% glycerol (measurement of 10s). Typically, for compound characterization and kinetic studies in wild type and tps1Δ strains, cells were (pre)grown on Complete Synthetic medium supplemented with 2% galactose (measurement of 10s). […] The loaded filter was transferred to a scintillation vial containing 3 mL liquid scintillation cocktail (Ultima-Flo M, Perkin Elmer) and counted using the Hidex 300 SL. […]"}, "[3]": {"target": "T2, human GLUT4^V85M (Homo sapiens, UniProt P14672, V85M)", "T2 construct": "HA (C); expressed in transfected cells; host or cells: S. cerevisiae EBY.VW4000 (hxt0 erg4Δ), plasmid pFL38Kan-GLUT4^V85M (TEF1 promoter, low-copy)", "T2 sequence (P14672 1-509 V85M)": "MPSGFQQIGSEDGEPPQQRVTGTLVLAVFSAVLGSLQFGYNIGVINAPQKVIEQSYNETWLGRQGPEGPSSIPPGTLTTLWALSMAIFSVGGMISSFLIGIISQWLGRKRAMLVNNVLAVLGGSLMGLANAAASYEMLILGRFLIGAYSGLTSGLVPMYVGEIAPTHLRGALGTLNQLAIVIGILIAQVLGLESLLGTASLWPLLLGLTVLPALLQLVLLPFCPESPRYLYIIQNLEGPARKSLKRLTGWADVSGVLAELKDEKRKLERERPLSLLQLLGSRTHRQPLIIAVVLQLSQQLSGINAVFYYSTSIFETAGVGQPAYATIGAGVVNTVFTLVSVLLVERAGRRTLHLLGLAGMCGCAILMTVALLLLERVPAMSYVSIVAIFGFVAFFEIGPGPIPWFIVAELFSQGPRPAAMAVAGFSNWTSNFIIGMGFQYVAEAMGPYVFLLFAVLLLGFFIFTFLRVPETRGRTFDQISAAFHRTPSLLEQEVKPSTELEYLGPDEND", "experiment": "Glucose uptake by GLUT4^V85M expressed in hxt^0 erg4Δ (EBY.VW4000) yeast", "format": "cell-based", "details": "2.5 mM glucose", "from_the_text": "as §1, §2"}, "[4]": {"test_system": "hexokinase", "experiment": "In vitro hexokinase activity in extracts of wild type cells", "format": "biochemical, S. cerevisiae", "details": "50 μM WBC-A", "method": "In vitro hexokinase activity was determined as described previously 43, s. As such, cells were first grown to exponential phase on complete Synthetic medium supplemented with 2% galactose. The cells were harvested and washed with ice-cold 25 mM MES buffer pH 6. Subsequently, cells were resuspended in lysis buffer (50 mM HEPES pH 7, 150 mM NaCl, 2.5 mM MgCl2, 5% glycerol and 1% Triton X-100) containing protease inhibitor after which the cells were mechanically lysed. After protein level determination, total protein concentration was diluted to 0.1 mg/mL in reaction buffer (50 mM HEPES pH 7, 150 mM NaCl, 2.5 mM MgCl2, 5% glycerol). For measuring activity, reaction buffer was supplemented with 0.8 mg/mL NADP^+ and 50 μg/mL Glu6P dehydrogenase. After temperature equilibration of the plate at 30° C., the reaction was started by adding both ATP and glucose to the reaction buffer. OD340 was measured using the Synergy H1 Hybrid reader and hexokinase activity was determined based on the linear increase of absorbance in the first 10-20s."}, "[5]": {"test_system": "HXK2 hxk1Δ glk1Δ, hxk2Δ hxk1Δ glk1Δ and hxk2Δ hxk1Δ GLK1 cells", "experiment": "Sugar uptake in yeast strains with and without hexokinase activity", "format": "cell-based, S. cerevisiae", "details": "for inhibition at 50 µM: Saccharomyces cerevisiae", "method": "Zero-trans uptake of radioactively labeled [U-^14C]glucose, [U-^14C]fructose or [U-^14C]galactose by S. cerevisiae cells was determined in accordance with previous studies^44,66. Cells were grown on different carbon sources depending on the experiment. For measuring glucose uptake activity in the tps1Δ and tps1Δ hxtA strains (FIG. 1b,c), cells were grown on YP medium containing 3% glycerol (measurement of 10s). Typically, for compound characterization and kinetic studies in wild type and tps1Δ strains, cells were (pre)grown on Complete Synthetic medium supplemented with 2% galactose (measurement of 10s). In the experiments on the influence of hexokinase activity on the sugar uptake rate, the measurement duration was shortened to 5s and cells were always grown on YP medium containing 3% glycerol and 2% ethanol. After harvesting, cells were washed twice with ice-cold 25 mM MES-buffer pH 6, and resuspended in their respective medium without sugar to a final concentration of 45 mg (wet weight)/mL. The amount of added tracer was estimated to give a response close to at least 1000 counts per min in order to adequately counter background noise. Cells were first preincubated for 10 min at 30° C. with the compound to acclimate the cells to the temperature and to allow adequate interaction with the compound prior to uptake. Next, hexose sugar was mixed with the cell suspension, which was then incubated for 5 or 10 s, depending on the experiment, after which the cells were rapidly filtered over a glass microfiber filter (Whatman GF/C) and washed three times with ice-cold dH2O. The loaded filter was transferred to a scintillation vial containing 3 mL liquid scintillation cocktail (Ultima-Flo M, Perkin Elmer) and counted using the Hidex 300 SL. Three blank measurements per strain were typically included to account for background signal, for which the cells were first quenched before adding the radioactive label."}},
  "note": "Read-outs that look alike come from different tables or passages of the source.",
  "data": [
    {"smiles": "Cc1nc(Sc2nnc3n2CCCCC3)c2c(-c3cccs3)csc2n1", "note": "[WBC-A]", "values": [
      {"measurement": "Rescue of tps1Δ growth on galactose in the presence of 5 mM glucose", "setting": "[1]; 100 μM WBC-A, 5 mM glucose", "value": "rescued growth"},
      {"measurement": "Rescue of tps1Δ growth in the presence of 7.5 mM glucose", "setting": "[1]; 100 μM WBC-A, 7.5 mM glucose", "value": "not able to restore growth"},
      {"measurement": "Growth of tps1Δ cells on galactose in the absence of glucose", "setting": "[1]; 100 μM WBC-A, 2% galactose", "value": "significant growth delay"},
      {"measurement": "Minimal rescue concentration for growth of tps1Δ cells on 2.5 mM glucose", "setting": "[1]; 2.5 mM glucose", "value": 25, "unit": "µM"},
      {"measurement": "IC50", "setting": "[2]", "value": 51, "unit": "µM"},
      {"measurement": "Inhibition of glucose uptake by Hxt7 at 25 μM", "setting": "[2]; 25 μM, 2.5 mM glucose, hxt^0 gal2Δ strain", "value": "inhibited"},
      {"measurement": "IC50", "setting": "[3]", "value": 20.9, "unit": "µM"},
      {"measurement": "Effect on in vitro hexokinase activity", "setting": "[4]", "value": "No significant effect"},
      {"measurement": "Fructose uptake at tracer concentration, hxk2Δ hxk1Δ GLK1 cells", "setting": "[5]; 50 μM WBC-A", "value": "little inhibition of fructose uptake"},
      {"measurement": "Glucose uptake at tracer concentration, hxk2Δ hxk1Δ GLK1 cells", "setting": "[5]; 50 μM WBC-A", "value": "strong inhibition of glucose uptake"},
      {"measurement": "Inhibition of glucose uptake rate, hxk1Δ hxk2Δ glk1Δ strain", "setting": "[5]; 1 mM glucose", "value": "little further inhibition"},
      {"measurement": "Inhibition of glucose uptake rate, strain expressing active Hxk2", "setting": "[5]; 1 mM glucose, HXK2 hxk1Δ glk1Δ", "value": "strong reduction in glucose uptake rate"},
      {"measurement": "inhibition at 50 µM", "setting": "[5]; read-out: Inhibition of fructose transport, strain expressing only GLK1", "value": "~30", "unit": "%"},
      {"measurement": "inhibition at 50 µM", "setting": "[5]; read-out: Inhibition of fructose transport, strain only expressing HXK2", "value": "> 75", "unit": "%"}
    ]}
  ]
}
